Converted amounts (≈) assume the structure as drawn.
How the values were obtained:
[1] = Cytotoxicity against mouse RAW264.7 cells; type: cell-based
[2] = test system: Aspergillus fumigatus; test: Antifungal activity against Aspergillus fumigatus RCMB 02568 after 24 hrs by serial dilution method; type: functional; conditions: RCMB 02568, 24 h
[3] = test system: Mycobacterium tuberculosis; test: Potency index, ratio of isoniazid MIC to compound MIC for antitubercular activity against Mycobacterium tuberculosis RCMB 010126 clinical isolate; type: functional
[4] = test system: Staphylococcus aureus; test: Antibacterial activity against Staphylococcus aureus RCMB 010028 after 24 hrs by serial dilution method; type: functional; conditions: RCMB 010028, 24 h
[5] = Selectivity index, ratio of GI50 for mouse RAW264.7 cells to MIC for Mycobacterium aurum infected in mouse RAW264.7 cells; type: toxicity, cell-based; conditions: read-out: Selectivity Index
[6] = test system: WI-38; test: Cytotoxicity against human WI38 cells by MTT assay; type: cell-based
[7] = test system: Escherichia coli; test: Potency index, ratio of ciprofloxacin MIC to compound MIC for Escherichia coli RCMB 010052; type: functional
[8] = test system: Pseudomonas aeruginosa; test: Potency index, ratio of ciprofloxacin MIC to compound MIC for Pseudomonas aeruginosa RCMB 010043; type: functional
[9] = test system: Aspergillus fumigatus; test: Potency index, ratio of amphotericin B MIC to compound MIC for Aspergillus fumigatus RCMB 02568; type: functional
[10] = test system: Candida albicans; test: Antifungal activity against Candida albicans RCMB 05036 after 24 hrs by serial dilution method; type: functional; conditions: RCMB 05036, 24 h
[11] = test system: Pseudomonas aeruginosa; test: Antibacterial activity against Pseudomonas aeruginosa RCMB 010043 assessed as diameter of zone inhibition after 24 hrs by agar well diffusion assay; type: functional
[12] = test system: Staphylococcus aureus; test: Antibacterial activity against Staphylococcus aureus RCMB 010028 assessed as diameter of zone inhibition after 24 hrs by agar well diffusion assay; type: functional
[13] = test system: Enterococcus faecium; test: Antibacterial activity against vancomycin-resistant Enterococcus faecium ATCC 700221 after 24 hrs by serial dilution method; type: functional; conditions: ATCC 700221, 24 h
[14] = test system: Escherichia coli; test: Antibacterial activity against Escherichia coli RCMB 010052 after 24 hrs by serial dilution method; type: functional; conditions: RCMB 010052, 24 h
[15] = test system: Escherichia coli; test: Antibacterial activity against Escherichia coli RCMB 010052 assessed as diameter of zone inhibition after 24 hrs by agar well diffusion assay; type: functional
[16] = test system: Candida albicans; test: Antifungal activity against Candida albicans RCMB 05036 assessed as diameter of zone inhibition after 48 hrs by agar well diffusion assay; type: functional
[17] = test system: Aspergillus fumigatus; test: Potency index, ratio of amphotericin B MIC to compound MIC for antifungal activity against Aspergillus fumigatus RCMB 02568; type: functional
[18] = test system: Mycolicibacterium aurum; test: Antitubercular activity against Mycobacterium aurum infected in mouse RAW264.7 cells measured after 48 hrs; type: functional
[19] = test system: Staphylococcus aureus; test: Potency index, ratio of ciprofloxacin MIC to compound MIC for Staphylococcus aureus RCMB 010028; type: functional
[20] = Stability in mouse RAW264.7 cells measured after 48 hrs; type: ADME, cell-based; conditions: raw264.7, 48 h
[21] = test system: Mycobacterium tuberculosis; test: Antitubercular activity against Mycobacterium tuberculosis RCMB 010126 clinical isolate after 4 days by microplate alamar blue assay; type: functional; conditions: for MIC: Mycobacterium tuberculosis, RCMB 010126, 96 h
[22] = test system: Staphylococcus aureus; test: Antibacterial activity against methicillin-resistant Staphylococcus aureus ATCC 33592 after 24 hrs by serial dilution method; type: functional; conditions: ATCC 33592, 24 h
[23] = Selectivity index, ratio of IC50 for human WI38 cells to MIC for Mycobacterium tuberculosis RCMB 010126 clinical isolate; type: toxicity; conditions: read-out: Selectivity Index
[24] = test system: Pseudomonas aeruginosa; test: Antibacterial activity against Pseudomonas aeruginosa RCMB 010043 after 24 hrs by serial dilution method; type: functional; conditions: RCMB 010043, 24 h
[25] = test system: Aspergillus fumigatus; test: Antifungal activity against Aspergillus fumigatus RCMB 02568 assessed as diameter of zone inhibition after 48 hrs by agar well diffusion assay; type: functional
[26] = test system: Mycobacterium tuberculosis; test: Antitubercular activity against Mycobacterium tuberculosis RCMB 010126 after 7 days by microplate alamar blue assay; type: functional; conditions: RCMB 010126, 168 h
[27] = Selectivity index, ratio of IC50 for human WI38 cells to MIC for Mycobacterium tuberculosis RCMB 010126; type: toxicity; conditions: read-out: Selectivity Index

SMILES | GI50 [1] | MIC [2] | MIC [4] | selectivity ratio [5] | Ratio [7] | Ratio [8] | Ratio [9] | MIC [10] | diameter of the inhibition zone (DIZ) [11] | diameter of the inhibition zone (DIZ) [12] | MIC [14] | diameter of the inhibition zone (DIZ) [15] | diameter of the inhibition zone (DIZ) [16] | Ratio [17] | MIC [18] | Ratio [19] | inhibition (INH) [21] | MIC [21] | MIC [24] | diameter of the inhibition zone (DIZ) [25] | other results
CC(=O)c1sc(/N=C2\NC(=O)/C(=C3/C(=O)N(C)c4ccccc43)S2)nc1C | > 250 µg/mL | 0.98 µg/mL (≈ 2.46 µM) | 0.98 µg/mL (≈ 2.46 µM) | > 5 | 4 | 4 | 2 | 0.49 µg/mL (≈ 1.23 µM) | 23.2 mm | 23.4 mm | 0.49 µg/mL (≈ 1.23 µM) | 25.1 mm | 25.1 mm | 2 | 50 µg/mL (≈ 125 µM) | 2 | 76.35% | 0.39 µg/mL (≈ 0.979 µM) | 0.98 µg/mL (≈ 2.46 µM) | 23.2 mm | Ratio [3]: 2; IC50 [6]: 5.3 µg/mL (≈ 13.3 µM); MIC [13]: 62.5 µg/mL (≈ 157 µM); Stability [20]: Stable; MIC [22]: 15.6 µg/mL (≈ 39.2 µM); selectivity ratio [23]: 13
CC(=O)c1sc(/N=C2\NC(=O)/C(=C3/C(=O)Nc4ccc(Cl)cc43)S2)nc1C | – | 0.98 µg/mL (≈ 2.34 µM) | 0.98 µg/mL (≈ 2.34 µM) | – | 4 | 4 | 2 | 0.49 µg/mL (≈ 1.17 µM) | 22.5 mm | 22.1 mm | 0.49 µg/mL (≈ 1.17 µM) | 24.3 mm | 24.2 mm | 2 | – | 2 | 74.32% | 0.78 µg/mL (≈ 1.86 µM) | 0.98 µg/mL (≈ 2.34 µM) | 22.9 mm | –
CC(=O)c1sc(/N=C2\NC(=O)/C(=C3/C(=O)N(Cc4ccccc4)c4ccc(Cl)cc43)S2)nc1C | – | 0.98 µg/mL (≈ 1.93 µM) | 0.98 µg/mL (≈ 1.93 µM) | – | 4 | 4 | 2 | 0.49 µg/mL (≈ 0.963 µM) | 23.5 mm | 23.6 mm | 0.49 µg/mL (≈ 0.963 µM) | 25.6 mm | 25.3 mm | 2 | – | 2 | 80.34% | 0.39 µg/mL (≈ 0.766 µM) | 0.98 µg/mL (≈ 1.93 µM) | 23.6 mm | Ratio [3]: 2
CCOC(=O)c1sc(/N=C2\NC(=O)/C(=C/c3cccnc3)S2)nc1C | – | – | – | – | – | – | – | – | – | – | – | – | – | – | – | – | – | – | – | – | MIC [26]: 1.56 µg/mL (≈ 4.17 µM); selectivity ratio [27]: 52.1
CCOC(=O)c1sc(/N=C2\NC(=O)/C(=C3/C(=O)Nc4ccc(Cl)cc43)S2)nc1C | > 125 µg/mL | 1.95 µg/mL (≈ 4.34 µM) | 0.98 µg/mL (≈ 2.18 µM) | < 0.625 | 2 | 4 | 2 | 0.49 µg/mL (≈ 1.09 µM) | 22.6 mm | 23.1 mm | 0.98 µg/mL (≈ 2.18 µM) | 23.2 mm | 24.4 mm | – | > 200 µg/mL | 2 | 56.34% | 0.39 µg/mL (≈ 0.869 µM) | 0.98 µg/mL (≈ 2.18 µM) | 22.7 mm | Ratio [3]: 2; Stability [20]: Stable
CCOC(=O)c1sc(/N=C2\NC(=O)/C(=C3/C(=O)N(Cc4ccccc4)c4ccccc43)S2)nc1C | 500 µg/mL (≈ 991 µM) | 0.98 µg/mL (≈ 1.94 µM) | 1.95 µg/mL (≈ 3.86 µM) | 2.5 | 2 | 2 | – | 0.49 µg/mL (≈ 0.971 µM) | 23.1 mm | 24.2 mm | 0.98 µg/mL (≈ 1.94 µM) | 24.8 mm | 25.2 mm | 2 | 200 µg/mL (≈ 396 µM) | – | 87.38% | 0.39 µg/mL (≈ 0.773 µM) | 1.95 µg/mL (≈ 3.86 µM) | 23.2 mm | Stability [20]: Stable
CN[C@H](CC(C)C)C(=O)N[C@H]1C(=O)N[C@@H](CC(N)=O)C(=O)N[C@H]2C(=O)N[C@H]3C(=O)N[C@H](C(=O)N[C@H](C(=O)O)c4cc(O)cc(O)c4-c4cc3ccc4O)[C@H](O)c3ccc(c(Cl)c3)Oc3cc2cc(c3O[C@@H]2O[C@H](CO)[C@@H](O)[C@H](O)[C@H]2O[C@H]2C[C@](C)(N)[C@H](O)[C@H](C)O2)Oc2ccc(cc2Cl)[C@H]1O [VANCOMYCIN] | – | – | – | – | – | – | – | – | – | – | – | – | – | – | – | – | – | – | – | – | MIC [22]: 1.95 µg/mL (≈ 1.35 µM)
O=C(O)c1cn(C2CC2)c2cc(N3CCNCC3)c(F)cc2c1=O [CIPROFLOXACIN] | – | – | 1.95 µg/mL (≈ 5.89 µM) | – | – | – | – | – | 23.1 mm | 22.2 mm | 1.95 µg/mL (≈ 5.89 µM) | 24.3 mm | – | – | – | – | – | – | 3.9 µg/mL (≈ 11.8 µM) | – | MIC [13]: 3.9 µg/mL (≈ 11.8 µM)
CCOC(=O)c1sc(/N=C2\NC(=O)/C(=C3/C(=O)Nc4ccccc43)S2)nc1C | 125 µg/mL (≈ 302 µM) | 0.98 µg/mL (≈ 2.36 µM) | 0.98 µg/mL (≈ 2.36 µM) | 1.25 | – | 2 | – | 0.98 µg/mL (≈ 2.36 µM) | 21.8 mm | 22.5 mm | 1.95 µg/mL (≈ 4.7 µM) | 22.4 mm | 22.7 mm | 2 | 100 µg/mL (≈ 241 µM) | – | 72.14% | 0.78 µg/mL (≈ 1.88 µM) | 1.95 µg/mL (≈ 4.7 µM) | 21.6 mm | Stability [20]: Stable

Reference: ChEMBL document CHEMBL4308854, “Novel indole-thiazolidinone conjugates: Design, synthesis and whole-cell phenotypic evaluation as a novel class of antimicrobial agents” (Eur J Med Chem, 2018)
